Experimental data from US7879886B2, “Iron binding agents” (University of Florida Research Foundation, Inc., priority 1998, dated 2011).
Read-outs that look alike come from different tables or passages of the source.

Experiments:
[1] = Iron clearance efficiency in the normal (not iron-loaded) bile duct-cannulated Sprague-Dawley rat; assay type: in vivo
From the text: (§1) One screen for efficacy is the normal (not iron-loaded) Sprague-Dawley rat with a cannulated bile duct. In this model, collection of bile and urine after oral or parenteral administration of a chelator permits the rapid determination of the magnitude and route(s) of excretion. The iron-loaded Cebus apella monkey is used as a better screen, however. To date, the behavior of iron chelators in this primate model has been-quantitatively predictive of both the magnitude and routes of iron clearance after human administration.
(§2) The primary measure of activity is the efficiency of the compound, as assessed in both rodent and primate models and compared with sc DFO. Compound efficiency is a comparative evaluation of how much iron excretion a chelator promotes relative to the theoretical amount. For example, the hexacoordinate chelator DFO forms 1:1 iron complexes with a formation constant of 3×10^30 M^−1 (Anderegg et al., Helv. Chim. Acta 46: 1409-1422 (1963)); if the efficiency were 100%, one mmol of DFO administered to an animal would cause one mmol of the iron complex to be excreted. In fact, only 5% of the calculated iron is excreted when DFO is administered to humans (Kirking et al., Clin. Pharmacol. 10:775-783 (1991)). In the case of the DFT analogues, the efficiency calculation is based on the formation of a 2:1 complex with a formation constant assumed to be similar to that of the parent compound, 4×10^29 M^−1 (Anderegg et al., J. Chem. Soc., Chem. Commun. 1194-1196 (1990).

[2] = Iron clearance efficiency in the iron-loaded Cebus apella monkey; assay type: in vivo
From the text: as §1, §2

[3] = cited from earlier work
malarial parasites = experiment: Impact on malarial parasites in vitro (48 h exposure, 48 h after removal, percent parasitemia); assay type: cell-based, Plasmodium
From the text: Studies can be done on the developmental stages and morphology of the malarial parasite in vitro; the minimum effective concentration required for cytotoxicity can be shown. The target structures include the nuclear envelope, the membrane of the food vacuole, accumulation of electron-dense substances in the mitochondria, undigested materials, and dilation of the endoplasmic reticulum.
In order to determine the concentration at which a compound is cytostatic and cytotoxic, the parasites are exposed to the drug using at least two different concentrations. After 48 h the chelator is removed, and the parasites are incubated for an additional 48 h. The percent parasitemia is determined at both time points (48 and 96 h). The effects of the various compounds on malarial parasites seem quite varied. For the purposes of comparison, DFO can serve as the positive control. […] However, at a concentration of 10^−4 M, DFO is cytotoxic; the plasmodia die during the 48-h incubation with the compound.
The compounds designated as 8 and 22 in Table I are active in this in vitro assay. Others can be similarly tested.

[4] = administered to humans; cited from earlier work

| Structure (SMILES) | % Efficiency of Iron Clearance ([1]; route not given) | % Efficiency of Iron Clearance ([2]; 150 μmol/kg po) [%] | % Efficiency of Iron Clearance ([1]; po) | % Efficiency of Iron Clearance ([1]; sc) | % Efficiency of Iron Clearance ([2]; 300 μmol/kg po) | other results |
| --- | --- | --- | --- | --- | --- | --- |
| C[C@]1(C(=O)O)CSC(c2ncccc2O)=N1 [1(S), desferrithiocin, reference compound] | 5.5 ± 3.2% | 16.1 ± 8.5 | – | – | – | Formation constant of iron complex ([3]; 2:1 complex): 4e+29 M⁻¹ |
| O=C(O)[C@H]1CSC(c2ncccc2O)=N1 [2(S), (S)-desmethyldesferrithiocin] | – | 4.8 ± 2.7 | 2.4 ± 0.56 (po) % | 1.8 ± 0.7 (sc) % | 8.0 ± 2.5% | % Efficiency of Iron Clearance ([2]; 300 μmol/kg sc): 8.3 ± 2.7% |
| O=C(O)C1CSC(c2ccc(O)cc2O)=N1 [5(R), 4,5-Dihydro-2-(2-,4-dihydroxyphenyl)-4-thiazolecarboxylic acid] | ≦0.5% | 1.7 ± 0.8 | – | – | – | – |
| O=C(O)C1CSC(c2ccc(O)cc2O)=N1 [5(S), 4,5-Dihydro-2-(2-,4-dihydroxyphenyl)-4-thiazolecarboxylic acid] | – | 4.2 ± 1.4 | 2.4 ± 0.9 (po) % | – | 5.3 ± 1.7% | % Efficiency of Iron Clearance ([2]; 150 μmol/kg in H2O sc): 5.6 ± 0.9%; % Efficiency of Iron Clearance ([2]; 300 μmol/kg in H2O po): 4.8 ± 1.4% |
| COc1cccc(C2=N[C@@H](C(=O)O)CS2)c1O [6(S), (S)-4,5-dihydro-2-(2-hydroxy-3-methoxyphenyl)-4-thiazolecarboxylic acid] | – | – | 0.9 ± 0.3 (po) % | 0.5 ± 0.9 (sc) % | – | – |
| O=C(O)c1ccc(C2=N[C@@H](C(=O)O)CS2)c(O)c1 [7(S), (S)-4,5-Dihydro-2-(2-hydroxy-4-carboxyphenyl)-4-thiazolecarboxylic acid] | ≦0.5% | – | – | – | – | – |
| C[C@]1(C(=O)O)CSC(c2ccccc2O)=N1 [9(S)] | – | – | 2.7 ± 0.5 (po) % | – | 13.1 ± 4% | % Efficiency of Iron Clearance ([2]; 75 μmol/kg po): 21.5 ± 12%; % Efficiency of Iron Clearance ([2]; 300 μmol/kg sc): 43.3 ± 8.5% |
| O=C(O)C1CCSC(c2ncccc2O)=N1 [14(S), 2-(3-hydroxy-2-pyridinyl)4H-5,6-dihydro-1,3-thiazine-4-carboxylic acid] | ≦0.5% | – | – | – | – | – |
| O=C(O)[C@H]1CSC(Cc2ccccc2O)=N1 [15(S), (S)-4,5-Dihydro-2-(2-hydroxyphenylmethyl)-4-thiazolecarboxylic acid] | ≦0.5% | – | – | – | – | – |
| O=C(O)C[C@H]1CSC(c2ccccc2O)=N1 [16(S), (S)-4,5-Dihydro-2-(2-hydroxyphenyl)-4-thiazoleacetic acid] | ≦0.5% | – | – | – | – | – |
| O=C(O)CC[C@H]1CSC(c2ccccc2O)=N1 [17(S), (S)-4,5-dihydro-2-(2-hydroxyphenyl)-4-thiazolepropanoic acid] | ≦0.5% | – | – | – | – | – |
| C[C@]1(C(=O)O)CSC(c2ccc(O)cc2O)=N1 [28(S), 4′-hydroxydesazaDFT] | ≦0.5% | 13.4 ± 5.8 | – | – | – | % Efficiency of Iron Clearance ([2]; 75 μmol/kg po): 17.7 ± 3.9% |
| CN(O)C(=O)[C@H]1CSC(c2ncccc2O)=N1 [Compound 22, (S)-desmethyldesferrithiocin, N-methylhydroxamate] | – | 6.9 ± 3.0 | 3.1 ± 0.4 (po) % | 5.3 ± 0.7 (sc) % | 13.2 ± 7.7% | % Efficiency of Iron Clearance ([2]; 150 μmol/kg sc): 11.7 ± 5.5%; Activity in the in vitro malarial parasite assay (malarial parasites): active |
| O=C(C1CSC(c2ncccc2O)=N1)N(O)Cc1ccccc1 (stereo not shown) [Compound 24] | – | – | 1 ± 0.1 (po) % | 1.4 ± 0.8 (sc) % | ≦0.5% | % Efficiency of Iron Clearance ([2]; 300 μmol/kg sc): ≦0.5% |
| Oc1cccnc1C1=N[C@@H](N(O)CCOCCOCCN(O)[C@H]2CSC(c3ncccc3O)=N2)CS1 [Compound 25, (S,S)-N^1,N^8-bis[4,5-dihydro-2-(3-hydroxy-2-pyridinyl)-4-thiazoyl]-N^1,N^8-dihydroxy-3,6-dioxa-1,8-octanediamine] | – | – | 4.6 ± 2.1 (po) % | 20.6 ± 1.3 (sc) % | – | – |
| CC(=O)N(O)CCCCCNC(=O)CCC(=O)N(O)CCCCCNC(=O)CCC(=O)N(O)CCCCCN [DFO] | – | – | – | – | – | Effect on plasmodia (malarial parasites; 48-h incubation at 10^−4 M): cytotoxic; Malarial growth after the compound is removed (malarial parasites; after 48-h exposure at 10^−5 M, compound removed): normal growth resumes; Effect on malarial growth (malarial parasites; initial 48-h continuous exposure at 10^−5 M): inhibits malarial growth; Formation constant of iron complex ([3]; 1:1 iron complex): 3e+30 M⁻¹; Efficiency: calculated iron excreted [4]: 5% |
